{"source": "patent US5932541A", "about": "“Method of adjusting the circadian rhythm of a mammal” (Gruenenthal GmbH, priority 1998, dated 1999)", "key": {"[1]": {"tested_on": "hamsters", "assay": "Visual observation of overt behavior for two hours post-injection", "assay_type": "in vivo, hamster (Mesocricetus auratus)", "procedure": "(§1) Animals were maintained initially in a 14:10 hour light:dark cycle for 7-10 days, then transferred to constant dim red lighting (RR) conditions for the remainder of the experiment (40-60 days). After free-running for 7 days in dim red lighting, animals either received Montirelin or vehicle intraperitoneally. The daily onset of wheel-running activity was defined as circadian time 12 (CT 12), and this time was used as a reference point in determining appropriate circadian injection times. The test animals were divided into eight groups of three animals each, and intraperitoneal injections of the active compound at dosage levels of 10 or 20 mg/kg or of the vehicle alone were administered to respective test groups at circadian time 3 (CT 3) or circadian time 16 (CT 16). The order of injections and time points was randomized. An additional 4 animals maintained in similar lighting conditions were visually observed for two hours post-injection of Montirelin (10 or 20 mg/kg) to determine any overt behavioral effects exerted by this compound. A total of 9 injections were made for each of the eight treatment groups."}, "[2]": {"tested_on": "circadian rhythm of hamster wheel running activity", "assay": "Phase shift of the circadian rhythm of hamster wheel running activity after intraperitoneal injection", "assay_type": "in vivo, hamster (Mesocricetus auratus)", "procedure": "A preliminary study was conducted to determine whether peripherally administered 6-methyl-5-oxo-3-thiomorpholinyl-carbonyl-L-histidyl-L-prolinamide (Montirelin) is capable of phase shifting the circadian rhythm of hamster wheel running activity. Twenty-four male hamsters [Mesocricetus auratus; 8-12 weeks of age; Charles River LAK:LVG(SYR)] were housed individually in cages equipped with running wheels, and food and water freely available. Animals were maintained in light-tight, ventilated cabinets (six cages per cabinet) in which the lighting schedule could be controlled. Each animal's wheel running activity was monitored continuously throughout each experiment using a data acquisition software kit (Chronobiology, Stanford, Calif.).\nas §1\nPhase shifts in the circadian activity rhythm were determined by measuring the phase difference between eye-fitted lines connecting the onset of activity for a period of ten days before and ten days after an experimental manipulation."}, "[3]": {"tested_on": "Sprague-Dawley rats", "assay": "Subacute repeated-dose intravenous toxicity study with four-week recovery", "quoted_text": "Eight nine SPF Slc:SD rats of both sexes (age: four weeks, body weight: 70.0-81.6 g) were purchased from Shizuoka Agriculture Cooperative Association for Laboratory Animals. During a one-week quarantine/acclimation period, the animals were measured for body weight and observed for any general symptoms, and healthy animals showing normal growth were selected and used in the experiment at the age of five weeks.\nMales and females were used in five groups (including the control group) of 10 animals/sex, and additional 10 animals/sex ere added to the control, 0.5 mg/kg and 50 mg/kg groups to investigate the reversibility of the toxic effect of the test substance. All these animals were randomized to each group by weight stratification so that the differences in initial mean body weight were within 2% between groups.\nThis study also included the vehicle control group.\nDosing solutions were prepared by dissolving a weighed amount of the test substance in physiological saline at a concentration of 1 W/V % using a volumetric flask. Lower dosing solutions were obtained by successive 10-fold dilution of the initial solution. The respective dosing solution was repeatedly administered intravenously once daily for 35 days into the tail vein at a rate of 0.2 ml/10 sec. using a 1/4 syringe for injection. The treatment was given at a constant volume of 0.5 ml/100 g body weight in all dose groups, and the control group was treated with physiological saline at the same volume in the same manner.\nClinical signs in all animals were observed daily between two and four hours after dosing according to Irwin's method of comprehensive observational assessment, and the type, severity, onset time and disappearance time of toxic symptoms were recorded. During the recovery period, the clinical observation was performed once daily in the morning in the same manner. The body weight, food consumption and water consumption were measured in all animals three times weekly in the morning throughout the treatment and recovery periods and recorded."}, "[4]": {"conditions": "20 mg/kg i.p., at both CT 3 and CT 16, individual hamsters"}, "[5]": {"conditions": "both sexes, 50 mg/kg, within the range of normal physiological variations"}}}
{"smiles": "CC1SCC(C(=O)N[C@@H](Cc2c[nH]cn2)C(=O)N2CCC[C@H]2C(N)=O)NC1=O", "note": "(stereo partly drawn) [Montirelin, 6-methyl-5-oxo-3-thiomorpholinylcarbonyl-L-histidyl-L-prolinamide]", "values": [{"measurement": "overt behavior versus vehicle", "setting": "[1]; 10 mg/kg i.p. at CTs 3 and 16", "result": "no differences in overt behavior"}, {"measurement": "overt behavior versus vehicle", "setting": "[1]; 20 mg/kg i.p. at both CT 3 and CT 16", "result": "clear differences in overt behaviors"}, {"measurement": "Effects on the Phase of Wheel Running Activity, Group Averages", "setting": "[2]; 10 mg/kg i.p. at CT 3", "result": "4.3 ± 2.2", "unit": "min"}, {"measurement": "Effects on the Phase of Wheel Running Activity, Group Averages", "setting": "[2]; 10 mg/kg i.p. at CT 16", "result": "3.5 ± 2.3", "unit": "min"}, {"measurement": "Effects on the Phase of Wheel Running Activity, Group Averages", "setting": "[2]; 20 mg/kg i.p. at CT 3", "result": "5.5 ± 2.4", "unit": "min"}, {"measurement": "Effects on the Phase of Wheel Running Activity, Group Averages", "setting": "[2]; 20 mg/kg i.p. at CT 16", "result": "3.1 ± 2.0", "unit": "min"}, {"measurement": "phase advances in individual hamsters", "setting": "[2]; [4]", "result": "≈ 16 min."}, {"measurement": "phase delays in individual hamsters", "setting": "[2]; [4]", "result": "≈ 10 min."}, {"measurement": "clinical signs: polyuria", "setting": "[3]; 5 mg/kg or higher groups, almost all males and females, peak about one hour after dosing day 0-3, disappearing by day 4-28", "result": "transient polyuria"}, {"measurement": "clinical signs: systemic tremor", "setting": "[3]; 50 mg/kg group, both sexes, from day 0, disappearing by day 6 in males, day 4 in females", "result": "systemic tremor was observed transiently during the injection"}, {"measurement": "blood biochemical parameters", "setting": "[3]; all treatment groups", "result": "No treatment-related abnormalities"}, {"measurement": "gross changes at autopsy", "setting": "[3]; all treatment groups", "result": "no treatment-related grossly abnormal changes"}, {"measurement": "histopathology of other organs (light microscopy); liver and kidney (electron microscopy)", "setting": "[3]; all treatment groups", "result": "no remarkable changes"}, {"measurement": "histopathology: hypertrophy of serous cells in the submaxillary gland", "setting": "[3]; both sexes of all treatment groups", "result": "showed dose-dependency"}, {"measurement": "water consumption", "setting": "[3]; both sexes receiving 5 mg/kg or above, day 2-3 until about week 4", "result": "increased"}, {"measurement": "red blood cell count, hemoglobin and hematocrit", "setting": "[3]; [5]", "result": "increasing tendency"}, {"measurement": "total white blood cell count", "setting": "[3]; [5]", "result": "decreasing tendency"}, {"measurement": "food consumption and body weight, females", "setting": "[3]; females", "result": "unremarkable"}, {"measurement": "reversibility of observed changes", "setting": "[3]; four-week recovery after discontinuing administration", "result": "All observed changes were reversed"}, {"measurement": "urinary findings (urine volume)", "setting": "[3]; males and females receiving 5 mg/kg or above, week 2 and 5 of treatment", "result": "unremarkable except for an increase in urine volume"}, {"measurement": "body weight gain, males", "setting": "[3]; males, particularly 0.5, 5 and 50 mg/kg", "result": "suppressed"}, {"measurement": "death", "setting": "[3]; rats, i.v. once daily 35 days, 0.05-50 mg/kg/day, administration and recovery periods", "result": "no death occurred"}, {"measurement": "food consumption, males", "setting": "[3]; treated males compared with control males", "result": "tended to decrease food consumption"}]}
